In patent publication US7504432B2 (priority 2000, dated 2009):

Experiments:
[1] = target: T1, m2 muscarinic acetylcholine receptor (Homo sapiens, UniProt P08172); test: biochemical; format: binding
T1 construct: purchased Receptor Biology, Inc; host or cells: CHO cells
T1 sequence (P08172 1-466): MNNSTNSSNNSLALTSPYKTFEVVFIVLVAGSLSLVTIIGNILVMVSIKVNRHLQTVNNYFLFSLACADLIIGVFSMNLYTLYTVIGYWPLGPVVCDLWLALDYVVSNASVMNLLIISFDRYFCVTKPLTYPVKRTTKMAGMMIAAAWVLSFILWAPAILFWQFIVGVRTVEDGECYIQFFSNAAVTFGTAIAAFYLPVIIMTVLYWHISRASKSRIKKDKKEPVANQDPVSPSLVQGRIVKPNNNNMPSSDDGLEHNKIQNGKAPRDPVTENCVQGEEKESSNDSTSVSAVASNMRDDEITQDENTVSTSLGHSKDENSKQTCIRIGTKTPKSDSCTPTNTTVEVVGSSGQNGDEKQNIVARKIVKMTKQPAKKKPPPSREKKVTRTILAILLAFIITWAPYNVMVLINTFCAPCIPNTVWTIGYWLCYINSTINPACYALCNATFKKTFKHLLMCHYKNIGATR

[2] = target: T2, m3 muscarinic acetylcholine receptor (Homo sapiens, UniProt P20309); test: biochemical; format: binding
T2 construct: purchased Receptor Biology, Inc; host or cells: CHO cells
T2 sequence (P20309 whole entry): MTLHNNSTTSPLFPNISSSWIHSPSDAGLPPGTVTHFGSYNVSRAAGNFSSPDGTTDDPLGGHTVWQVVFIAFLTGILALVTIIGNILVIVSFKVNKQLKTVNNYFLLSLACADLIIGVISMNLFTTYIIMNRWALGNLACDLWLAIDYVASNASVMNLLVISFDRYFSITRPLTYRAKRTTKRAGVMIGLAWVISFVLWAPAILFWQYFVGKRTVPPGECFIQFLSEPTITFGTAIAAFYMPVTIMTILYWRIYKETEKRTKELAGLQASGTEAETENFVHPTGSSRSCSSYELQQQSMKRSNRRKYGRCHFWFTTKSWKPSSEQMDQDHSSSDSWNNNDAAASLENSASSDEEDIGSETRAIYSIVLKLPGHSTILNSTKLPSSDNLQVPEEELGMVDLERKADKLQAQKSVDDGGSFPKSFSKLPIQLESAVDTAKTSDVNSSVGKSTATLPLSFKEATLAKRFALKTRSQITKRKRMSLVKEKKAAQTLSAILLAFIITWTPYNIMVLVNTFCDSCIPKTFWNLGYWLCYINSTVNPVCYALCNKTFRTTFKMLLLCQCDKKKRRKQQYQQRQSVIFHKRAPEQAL

[3] = target: T3, M2 receptor in isolated rat right atrium (Rattus norvegicus, UniProt P10980); test: biochemical
T3 construct: A male SD strain rat (weighing 300-500 g) was killed by exsanguination, and the right atrium was isolated; from tissue; host or cells: isolated right atrium of male SD rat
T3 sequence (P10980 1-466): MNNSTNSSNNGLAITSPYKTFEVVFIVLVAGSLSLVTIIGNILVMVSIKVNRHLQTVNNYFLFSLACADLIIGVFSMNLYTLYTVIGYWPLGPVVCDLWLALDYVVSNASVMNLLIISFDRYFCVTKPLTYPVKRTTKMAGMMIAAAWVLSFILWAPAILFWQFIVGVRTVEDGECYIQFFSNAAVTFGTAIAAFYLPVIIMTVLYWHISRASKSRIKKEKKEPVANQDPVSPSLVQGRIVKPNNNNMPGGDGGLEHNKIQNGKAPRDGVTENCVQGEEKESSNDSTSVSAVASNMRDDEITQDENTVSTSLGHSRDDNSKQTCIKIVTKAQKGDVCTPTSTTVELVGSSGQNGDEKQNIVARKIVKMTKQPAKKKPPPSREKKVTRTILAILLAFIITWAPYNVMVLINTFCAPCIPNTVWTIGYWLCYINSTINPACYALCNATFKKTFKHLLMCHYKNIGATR

[4] = target: T4, airway M3 receptor in isolated rat trachea (Rattus norvegicus, UniProt P08483); test: biochemical
T4 construct: A male SD strain rat (weighing 300-500 g) was killed by exsanguination, and the trachea was isolated; from tissue; host or cells: isolated trachea of male SD rat
T4 sequence (P08483 whole entry): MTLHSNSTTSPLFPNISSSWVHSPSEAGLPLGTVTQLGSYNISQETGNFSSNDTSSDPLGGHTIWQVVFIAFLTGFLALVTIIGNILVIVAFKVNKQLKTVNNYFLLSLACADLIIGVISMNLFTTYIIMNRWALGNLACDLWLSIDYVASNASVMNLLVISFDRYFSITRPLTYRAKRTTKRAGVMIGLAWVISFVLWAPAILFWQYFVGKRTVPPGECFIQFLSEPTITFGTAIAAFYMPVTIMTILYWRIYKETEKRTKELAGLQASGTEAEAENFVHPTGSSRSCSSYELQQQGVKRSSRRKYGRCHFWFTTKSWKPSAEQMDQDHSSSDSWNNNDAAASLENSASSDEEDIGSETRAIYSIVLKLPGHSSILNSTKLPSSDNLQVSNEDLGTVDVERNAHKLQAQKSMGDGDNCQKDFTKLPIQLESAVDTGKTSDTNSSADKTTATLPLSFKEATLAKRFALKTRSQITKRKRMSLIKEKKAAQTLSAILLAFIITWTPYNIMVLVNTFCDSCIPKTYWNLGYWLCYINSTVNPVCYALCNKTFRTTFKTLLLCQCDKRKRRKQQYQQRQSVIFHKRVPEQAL

muscarinic M3 receptor = target: T5, muscarinic M3 receptor (Canis lupus familiaris, UniProt A0A8I3N190); settings: dog, in vivo
T5 construct: 12-36 months old male beagle dogs (weighing 10-15 kg) were used; from tissue; host or cells: anesthetized male beagle dogs, airway in vivo
T5 sequence (A0A8I3N190 1-590): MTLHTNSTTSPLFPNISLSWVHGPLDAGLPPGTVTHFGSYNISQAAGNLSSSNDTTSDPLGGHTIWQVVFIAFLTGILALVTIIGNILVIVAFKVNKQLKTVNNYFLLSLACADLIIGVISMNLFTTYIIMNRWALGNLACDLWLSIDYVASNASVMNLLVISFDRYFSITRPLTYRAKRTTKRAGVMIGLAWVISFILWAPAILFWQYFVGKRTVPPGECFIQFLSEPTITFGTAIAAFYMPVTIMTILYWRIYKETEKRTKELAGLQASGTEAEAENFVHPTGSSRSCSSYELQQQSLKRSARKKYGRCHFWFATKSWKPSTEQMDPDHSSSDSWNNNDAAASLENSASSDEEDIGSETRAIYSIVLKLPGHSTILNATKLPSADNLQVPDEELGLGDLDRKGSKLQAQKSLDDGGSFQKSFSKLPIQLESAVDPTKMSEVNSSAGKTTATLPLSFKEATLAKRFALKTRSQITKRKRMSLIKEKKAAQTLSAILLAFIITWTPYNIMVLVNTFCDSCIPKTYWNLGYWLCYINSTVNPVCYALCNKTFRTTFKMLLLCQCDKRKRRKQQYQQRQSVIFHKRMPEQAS

`N=CN1CCC(CCOC(=O)[C@](O)(c2ccccc2)[C@@H]2CCC(F)(F)C2)CC1` [Example 54, 2-(1-(Iminomethyl)piperidin-4-yl)ethyl (2R)-2-((1R)-3,3-difluorocyclopentyl)-2-hydroxy-2-phenylethanoate] was tested. Which Ki [1] did it give?
Its Ki is 4.76 nM.

What about the Ki [2] of the same compound?
The Ki was 0.079 nM.

And the “m2/m3 (ratio of Ki)” value [2]?
The value was 60.2.

What about the Kb [3] of the same compound?
Its Kb is 10.6 nM.

And the Kb [4]?
Its Kb is 0.21 nM.

And the “M2/M3 (ratio of KB)” value ([4]; rat, right atrium / trachea)?
Its value is 50.

What about the “Shift Value 5 minutes after” value (muscarinic M3 receptor) of the same compound?
The value was >30.

What about the “Shift Value 4 hours after” value (muscarinic M3 receptor) of the same compound?
Its value is >30.

And the “Shift Value 24 hours after” value (muscarinic M3 receptor)?
The value was 3.9.
